From PMC3189933, “Acylpeptide Hydrolase Inhibition as Targeted Strategy to Induce Proteasomal Down-Regulation” (PLoS ONE, 2011)

Experiments:
APEHSs = assay: Inhibition of S. solfataricus APEH (APEHSs), Ac-Leu-pNA substrate; format: biochemical, Sulfolobus solfataricus
Protocol: APEH activity was expressed in IU.
(§1) Protease inhibitor activities of the SsCEI peptides and the CLA isomers were carried out using a fixed amount of APEH or partially purified proteasome (3–5 nM and 0.12 mg/mL, respectively), and increasing the SsCEI and CLA isomer concentrations. Mixtures were pre-incubated for 30 min at 37°C before the addition of the substrate, and the enzymatic activities were followed as described above. Protease inhibitor activities of the SsCEI peptides and the CLA isomers were determined towards APEHSs. The protease and increasing concentrations of the inhibitors were mixed and preincubated for 30 min at 80°C before the addition of the specific substrate. The residual enzymatic activity was determined using the assay procedure described above.
All data were obtained from triplicate analyses of three different preparations. Data were presented as means ±S.D. Statistical analysis and IC50 values were calculated with the SigmaPlot 10.0 software through a non-linear curve-fitting method and using a simple binding isotherm equation. Groups were compared by Student's t test, and P<0.05 was considered as significant.

porcine APEH = molecular target: T1, porcine APEH (Sus scrofa, UniProt P19205); assay: Time-dependent inhibition of APEH; format: biochemical; details: pre-incubation at least 20 min at 37°C, then diluted 1:5 into assay mixture with substrate
T1 construct: mammalian APEHs purified from both porcine liver and human colon carcinoma intestinal cells (Caco-2); purchased Takara; host or cells: porcine liver
T1 sequence (P19205 1-732): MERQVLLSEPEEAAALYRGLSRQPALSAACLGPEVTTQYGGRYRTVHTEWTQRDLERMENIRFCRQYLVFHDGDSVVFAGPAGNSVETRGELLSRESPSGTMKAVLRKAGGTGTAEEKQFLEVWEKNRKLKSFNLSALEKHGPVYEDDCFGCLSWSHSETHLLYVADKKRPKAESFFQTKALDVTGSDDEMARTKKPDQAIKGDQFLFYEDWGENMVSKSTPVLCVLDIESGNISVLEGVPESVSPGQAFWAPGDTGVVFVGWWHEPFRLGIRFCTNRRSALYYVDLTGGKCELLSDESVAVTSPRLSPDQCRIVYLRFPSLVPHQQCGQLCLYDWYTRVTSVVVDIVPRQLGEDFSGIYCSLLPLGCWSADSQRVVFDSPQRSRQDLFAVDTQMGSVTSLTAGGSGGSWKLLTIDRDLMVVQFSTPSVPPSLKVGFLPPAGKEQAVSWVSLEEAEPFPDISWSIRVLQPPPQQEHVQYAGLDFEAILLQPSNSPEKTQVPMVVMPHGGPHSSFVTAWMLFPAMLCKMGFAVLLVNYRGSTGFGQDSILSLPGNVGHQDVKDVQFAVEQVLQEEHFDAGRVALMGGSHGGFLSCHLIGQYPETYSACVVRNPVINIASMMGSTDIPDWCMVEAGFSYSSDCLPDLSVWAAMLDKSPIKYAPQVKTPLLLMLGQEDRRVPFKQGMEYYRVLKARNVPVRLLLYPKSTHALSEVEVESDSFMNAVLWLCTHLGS
Protocol: The time-dependent inhibition of SsCEI 4 and t10c12-CLA towards APEH was assessed. Mixtures containing appropriate amounts of each inhibitor and of APEH were pre-incubated for 20 min at 37°C; they were then diluted (1∶5) into the standard assay mixture, which contained the substrate only. The enzymatic activity was followed as described above. Control samples were prepared by pre-incubating the same amounts of APEH without the inhibitors and then diluted in the standard assay mixture.

[1] = test system: ΔF508 CFTR-3HA (CFTR-M) in BHK cells; assay: CFTR-M accumulation in BHK cells (immunoblot); format: cell-based, Baby Hamster; details: 100 µM, 24 h, densitometry vs untreated
Protocol: (§2) The cells were plated in 12-well plates, to a confluence of 60% for the 24-h incubations, and 40% for 48-h exposure to PIs. These treatments were initiated 24-h after the plating of the cells. Phase-contrast images of the cells were taken just before the lysis of the cells for protein analysis, using a Lica DM6000 inverted microscope.

BHK cells = assay: Cytotoxicity in BHK cells; format: cell-based, Baby Hamster; details: 100 µM, 24 h or 48 h; data not shown
Protocol: as §2

[2] = test system: proteasome CT-like activity in BHK cells; assay: CT-like proteasome activity in BHK cells; format: cell-based, Baby Hamster; details: 50 and 100 µM, 48 h
Protocol: as §2

[3] = molecular target: T2, partially purified proteasome from Caco-2 cells (Homo sapiens, UniProt P28074); assay: CT-like activity of partially purified proteasome from Caco-2 cells (cell-free); format: biochemical; details: proteasome 0.12 mg/mL, pre-incubated 30 min at 37°C
T2 construct: a partially purified proteasome fraction from differentiated Caco-2 cells; endogenous in cells; host or cells: Caco-2
T2 sequence (P28074 60-263): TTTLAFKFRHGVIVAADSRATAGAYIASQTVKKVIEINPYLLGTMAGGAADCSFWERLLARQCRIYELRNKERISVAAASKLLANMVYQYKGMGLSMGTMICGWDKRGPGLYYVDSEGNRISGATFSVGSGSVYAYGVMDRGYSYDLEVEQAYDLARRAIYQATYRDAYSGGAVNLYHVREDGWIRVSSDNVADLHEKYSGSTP
Protocol: APEH from Sulfolobus solfataricus was purified as previously reported. Partial purification of human APEH and proteasome was carried out from protein extracts of Caco-2 cell. Briefly, protein extracts (500 µg) were fractionated by gel filtration chromatography on a Superdex 200 PC 3.2/30 column connected to a SMART System (Pharmacia) equilibrated in buffer 50 mM Tris-HCl, pH 7.5, 100 mM NaCl, at 0.1 mL/min. The eluted fractions were assayed using the specific substrates for APEH and the proteasome. The active fractions were collected and used for further analysis.
as §1

[4] = test system: polyubiquitinylated proteins in Caco-2 cells; assay: Protein ubiquitinylation in Caco-2 cells (immunoblot); format: cell-based, human; details: 48 h, 200 µM SsCEI 4 or t10c12-CLA, mixture, 100 µM ebelactone, 10 µM MG132, species 66 kDa to 160 kDa
Excerpt: The following antibodies were used: anti-APEH antibody (sc-102311; Santa Cruz Biotechnology); anti-NF-κB/p65 antibody (Thermo Scientific); anti-p21Waf1 antibody (Exbio); pan Ab-5 anti-actin antibody (clone ACTN05, Thermo Scientific); and monoclonal antibodies against polyubiquitinylated proteins conjugated with horseradish peroxidase (FK2H, Enzo, Life Science). The ΔF508CFTR-3HA protein was detected with an anti HA monoclonal antibody (Covance).

[5] = test system: proteasome CT-like activity in Caco-2 cells; assay: CT-like proteasome activity in Caco-2 cells
Protocol: The synthetic fluorescent substrate N-succinyl-Leu-Leu-Val-Tyr-7-amido-4-methylcoumarin (N-Suc-LLVT-AMC) was used for the measurement of the CT-like activity of the proteasome, at a final concentration of 0.080 mM. The reaction mixture (0.9 mL) containing appropriate amount of proteasome was preincubated as above, in Tris buffer. N-Suc-LLVT-AMC was added, and the release of the fluorescent product (7-AMC) was monitored for 5 min in a Perkin–Elmer LS 50B fluorimeter. The excitation and emission wavelengths were 380 nm and 460 nm, respectively.
Caco-2 cells (ATCC) were cultivated in DMEM supplemented with 10% FBS, 1 mM glutamine and 100 units/mL penicillin-streptomycin at 37°C in a humidified 5% CO2 atmosphere. The cells were studied between passages 12 and 22. The cells were split using trypsin-EDTA solution and plated in 6-well plates at a density of 8×10^4 cells/mL and the medium was replaced every 2–3 days. […]
Following the treatments, the BHK and Caco-2 cells were washed three times with ice cold phosphate-buffered saline and collected immediately at 4°C in lysis buffer (1% Triton X-100, 0.1% SDS, 20 mM Tris-HCl, pH 8.0, 150 mM NaCl, 0.5% sodium deoxycholate and complete protease inhibitors [Roche]). […] The protein concentrations in the clear supernatants were determined (BCA protein assay reagent kit; Pierce) before their use in enzymatic assays or SDS–PAGE.

Caco-2 cells = assay: LDH release cytotoxicity assay in Caco-2 cells; details: 48 h
Protocol: The release of LDH was used as the marker for cell toxicity [48]. The culture supernatants were sampled at the end of the incubations and centrifuged (4,000×g, 5 min, and 4°C). Aliquots of the clear supernatant (10 µL) were incubated with 190 µL reaction buffer (200 mM Tris/HCl, pH 8.0, 0.7 mM p-iodonitrotetrazolium violet, 50 mM L-lactic acid, 0.3 mM phenazine methoxysulphate, 0.4 mM NAD,) for 30 min at 37°C. Absorbance was measured at 490 nm and the results were expressed as percentages of total LDH release from control cultures treated with 1% (w/v) Triton X-100 and calculated as: [(experimental value - blank value)/(total lysis -blank value)−100].

## CCCCC/C=C\C=C\CCCCCCCCC(=O)O [t10c12-CLA, trans10-cis12 CLA]
APEHSs; Ac-Leu-pNA 0.1 mM, 25 mM Tris-HCl pH 7.5, pre-incubated 30 min at 80°C, mean ± SD, read-out: IC50 towards APEHSs
  IC50: 80 ± 2 µM
APEHSs; Lineweaver–Burk equation, Ac-Leu-pNA, read-out: Ki towards APEHSs
  Ki: 140 ± 20 µM
APEHSs; Michaelis–Menten / Lineweaver–Burk analysis
  inhibition mechanism towards APEHSs: non-competitive
Porcine APEH
  inhibition of APEH after pre-incubation with the enzyme: 43%
[1]
  increase of CFTR-M levels: five
BHK cells
  cytotoxic effects in BHK cells: without any cytotoxic effects
[2]
  proteasome CT-like activity in BHK cells: dose-dependent inhibition
[3]
  effect on partially purified proteasome CT-like activity: not affected
[4]
  polyubiquitin conjugates in cell extract: presence of high-molecular-mass immunoreactive species
[5]; 200 µM, 48 h
  reduction in proteasomal CT-like activity: 40%
[5]; increasing concentrations, printed 'up to 45% of the residual activity' vs untreated
  dose-dependent decrease of CT-like proteasome activity in Caco-2 cells: up to 45%
Caco-2 cells; 200 µM SsCEI 4 or t10c12-CLA, 100 µM ebelactone, MG132 10 µM
  toxicity (LDH release) compared with MG132: significantly lower than that observed in culture incubated with MG132
Caco-2 cells; up to highest concentration 200 µM
  cytotoxic effect (LDH activity levels): not associated with any cytotoxic effect
